Columns and labels:
[1] = tested on: SB.mhdgc-1; assay: viability at highest tested concentration (MAXR) relative to DMSO; higher = less cytotoxic; conditions: SB.mhdgc-1 (hereditary c.1380delA CDH1 gastric cancer)
Procedure, shortened: (§1)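 A pintool delivered 23 nL of compound in DMSO to 1536-well plates holding 500 hereditary or sporadic patient-derived gastric cancer cells in 5 μL medium per well, at 11 concentrations in threefold steps. Following 48 h of exposure, cells were treated with CellTiter-Glo for 30 min at room temperature, and plates were read for luminescence on a ViewLux. The reported measure is viability normalised to DMSO, either at the top concentration or as trapezoidal area under the curve.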

[2] = tested on: SB.msgc-1; assay: as above; conditions: SB.msgc-1 (sporadic gastric cancer)
Procedure, shortened: as §1

[3] = tested on: SB.mhdgc-1; assay: area under the dose-response curve of % viability (trapezoidal, 11 doses) (% viability x log10 concentration); higher = less cytotoxic; conditions: SB.mhdgc-1 (hereditary c.1380delA CDH1 gastric cancer)
Procedure, shortened: as §1

[4] = tested on: SB.msgc-1; assay: as above; conditions: SB.msgc-1 (sporadic gastric cancer)
Procedure, shortened: as §1

SMILES | viability [1] [%] | viability [2] [%] | area under the dose-response curve [3] | area under the dose-response curve [4]
CC(C)(Cc1ccc2ccccc2c1)NC[C@@H](O)COc1cccc(Cl)c1C#N (top concentration 46.0829 µM) | 47.5 | 105 | 484 | 585
CC(C)(O)Cn1c(NC(=O)c2ccc(-c3cn[nH]c3)s2)nc2cc(CN3CCOCC3)ccc21 (top concentration 46.0829 µM) | 7.07 | 23.5 | 366 | 455
CC(C)C1=N[N](C\2=C1C(=O)N\C(=N2)CC3=CC=C(OCCO)C=C3)C4=C(Cl)C=CC=C4Cl (top concentration 46.0829 µM) | 21.9 | 24.2 | 274 | 353
CC/1=C(/C(CC(=O)N1)C2=CC=C(C=C2)C(F)(F)F)C(=O)NC3=C(F)C=C4[NH]N=CC4=C3 (configuration not stated) (top concentration 46.0829 µM) | 67.9 | 78.2 | 407 | 539
CC/1=C(\CCN2CCC(CC2)C3=NOC4=C3C=CC(=C4)F)C(=O)N/5CCCCC5=N1 (top concentration 46.0829 µM) | 65.9 | 81.5 | 402 | 506
Cc1cccc2c1CC[C@H](CN1CCC(c3c(Cl)cccc3Cl)CC1)C[C@@H]2O (top concentration 46.0829 µM) | 23.2 | 52 | 506 | 506
CC1=C2N=C([NH]C2=CC(=C1)N3CCOCC3)\C4=C(NC[C@@H](O)C5=CC=CC(=C5)Cl)\C=C/NC4=O (top concentration 46.0829 µM) | 21 | 28.1 | 314 | 418
Cc1ccc(C(C)(O)c2nc3ccccc3s2)c(C)c1 (configuration not stated) (top concentration 46.0829 µM) | 55.3 | 104 | 527 | 524
Cc1c(Cn2c(C)nc3c(C(=O)O)cc(N4CCOCC4)cc32)cccc1C(F)(F)F (top concentration 46.0829 µM) | 43.2 | 54.2 | 362 | 424
CC1COC2(CCN(CC2)C/3=N/C(=O)C4=CC(=CC(=C4S3)[N+]([O-])=O)C(F)(F)F)O1 (configuration not stated) (top concentration 46.0829 µM) | 45 | 69.9 | 428 | 520
CCNC(=O)C[C@H]1/N=C(/C2=CC=C(Cl)C=C2)C3=CC(=CC=C3[N]4C(=NN=C14)C)OC (top concentration 46.0829 µM) | 36 | 25.9 | 476 | 439
CCNC(=O)Nc1ccc(Oc2ncnc(N)c2/C=N/OC)cc1Cl (top concentration 46.0829 µM) | 83 | 53.8 | 534 | 481
CCNC(=O)Nc1ccc2ncc(Nc3ccc(C)cc3)nc2n1 (top concentration 46.0829 µM) | 20.8 | 27 | 307 | 347
CCn1c(C(=O)N(C2CC2)C2CC2)cc2c3c(ncn3C)c(Nc3cc(C)n(C)n3)nc21 (top concentration 46.0829 µM) | 91.1 | 91.1 | 503 | 512
CN(C)CC(=O)N1CCC(CC1)C2=CC=C(NC(=O)C3=NC(=C[NH]3)C#N)C(=C2)\C4=C\CCCC4 (top concentration 46.0829 µM) | 47.5 | 35.1 | 486 | 448
Cc1nc(Nc2n[nH]c3c2CN(C(=O)N[C@H](CN(C)C)c2ccccc2)C3(C)C)c2sccc2n1 (top concentration 46.0829 µM) | 35.4 | 33.7 | 310 | 284
CN1C(=O)C(=C\C2=C1N=C(NC3=CC=CC(=C3)C(O)=O)N=C2)/C4=C(Cl)C=CC=C4Cl (top concentration 46.0829 µM) | 59.3 | 44.5 | 518 | 407
CN1CCC(CC1)COC2=CN=C(N=C2)C3=CC(=CC=C3)CN4/N=C(\C=C/C4=O)C5=CC(=CC=C5)C#N (top concentration 46.0829 µM) | 4.88 | 41 | 347 | 325
CN1CCN(c2cccc(Nc3nc4c(-c5ccc([S+](C)(=O)[O-])cc5)cccn4n3)c2)CC1 (top concentration 46.0829 µM) | 71.6 | 68 | 450 | 494

SMILES | viability [1] [%] | viability [2] [%] | area under the dose-response curve [3] | area under the dose-response curve [4]
CN\1C(=O)/C(=C(\N=C1N2CCCC[S+]2([O-])=O)C(=O)NCC3=CC=C(F)C=C3)O (top concentration 46.0829 µM) | 130 | 99.9 | 620 | 544
COc1cc(OC)c(/C=C/[S+](=O)([O-])Cc2ccc(OC)c(NCC(=O)[O][Na])c2)c(OC)c1 (top concentration 46.0829 µM) | 64.1 | 38 | 450 | 411
COc1cc2nc(-c3cc(F)ccc3O)nc(N[C@@H]3CNC[C@H]3C(C)(C)O)c2cc1OC (top concentration 46.0829 µM) | 3.32 | 24.8 | 384 | 469
COc1ccc(Cc2ccc(NC(N)=O)cc2)cc1-c1cccc(Cl)c1 (top concentration 46.0829 µM) | 84.8 | 81.3 | 492 | 579
COc1ccc(Cn2ccc3ccc(C(=O)NO)cc32)cc1 (top concentration 46.0829 µM) | 101 | 78.3 | 559 | 493
COC1=CC=CC(=C1N)\C2=C\C(=O)C3=C(O2)C=CC=C3 (top concentration 46.0829 µM) | 42 | 59.1 | 432 | 495
COc1nccc(-c2c(-c3ccc(F)cc3)ncn2C2CCNCC2)n1 (top concentration 46.0829 µM) | 68.6 | 83.4 | 544 | 553
CSC1=CC(=CC=C1)NC2=NC3=C(C=N2)/C=C(C(=O)N3C)/C4=C(Cl)C=CC=C4Cl (top concentration 46.0829 µM) | 53.5 | 42.9 | 490 | 399
C[C@@H](Oc1ccc2[nH]nc(/C=C/c3cnn(CCO)c3)c2c1)c1c(Cl)cncc1Cl (top concentration 46.0829 µM) | 46.5 | 30.9 | 385 | 456
C[C@H](NCc1ccc2c(c1)nc(NC(=O)c1ccc(-c3cn[nH]c3)s1)n2CCc1ccccc1)C(C)(C)C (top concentration 46.0829 µM) | 2.84 | 1.8 | 350 | 400
C[C@@]1(C(=O)Nc2ccc(F)nc2)CCCN1c1nc(Nc2cc(C3CC3)[nH]n2)c2cccn2n1 (top concentration 46.0829 µM) | 27.8 | 53 | 370 | 476
O=C(NCc1ccncc1)C12C[C@H]3C[C@@H](C1)CC(c1ccc(Cl)cc1)(C3)C2 (top concentration 46.0829 µM) | 41.2 | 41.1 | 472 | 469
N#C/C(=C1/Nc2ccccc2S1)c1ccnc(OCc2ccc(CN3CCOCC3)cc2)n1 (top concentration 46.0829 µM) | 5.64 | 12.5 | 267 | 312
NC/1=N/[C@]2(COC[C@H]2CS1)C3=CC(=CC=C3F)NC(=O)C4=NC=C(F)C=C4 (top concentration 46.0829 µM) | 56.6 | 34.4 | 446 | 430
Nc1nc(N)c2nc(-c3cccc(O)c3)c(-c3cccc(O)c3)nc2n1 (top concentration 46.0829 µM) | 35.2 | 38.3 | 445 | 480
NCC(=O)Nc1ccc(-n2nc(C(F)(F)F)cc2-c2ccc3c(ccc4ccccc43)c2)cc1 (top concentration 46.0829 µM) | 0.199 | 10.9 | 496 | 472
O=C(Nc1ccccc1)Nc1ccc(-c2ccc(C(=O)[C@@H]3CCC[C@H]3C(=O)O)cc2)cc1 (top concentration 46.0829 µM) | 98.2 | 46.8 | 530 | 510
Oc1cc(-c2nc(-c3ccccc3)[nH]c2-c2ccncc2)ccc1Cl (top concentration 46.0829 µM) | 19 | 70.2 | 384 | 488
OC[C@H]1O[C@H]([C@@H](F)[C@@H]1O)N2\C=C/C(=O)NC2=O (top concentration 46.0829 µM) | 46.4 | 38.1 | 538 | 451

— the supplement of paper PMC5412046
